Data set [1] in a line: Evaluation of metabolic stability in human liver microsome (human liver S9 components). In kind it is in vitro ADME. As to conditions: liver S9 components (headed liver microsome); human liver S9 components 4 mg/mL, pH 7.4, 37° C., LC-MS/MS; read-out: T1/2 (h) Liver microsome (converted). The procedure: To 1 mL of buffer containing 5 mM MgCl2 and 50 mM K2HPO4 (pH 7.4) was added 2 μL of a solution of 50 mM compound to be tested in DMSO, then human liver S9 components were added to reach 4 mg/mL, and the mixture was incubated at 37° C. 100 μL of sample was taken at different time points, into which 300 μL of methanol was added, and the mixture was centrifuged at 14000 rpm for 30 min at 4° C. 100 μL of supernatant was taken, into which 100 μL of methanol was added, and the mixture was frozen at −20° C. for later use.
(§1) The content of the compound to be tested in plasma or liver microsome was determined by LC-MS/MS, and the half-life was calculated. Instruments: Prominence 20 A liquid chromatograph from Shimadzu, API 4000 Q-TRAP mass spectrometer from Applied Biosystems; mass spectrometry conditions: ESI negative ion detection; chromatographic column: Diamonsil C18 (100×4.6 mm, 5 μm) chromatographic column; column temperature: 40° C.; flow rate: 0.5 mL/min. Mobile phase A: methanol; mobile phase B: 5% aqueous methanol solution (containing 2 mM ammonium formate); flow rate: 0.5 mL/min; gradient elution as shown in the following table: […]
In general terms: Microsomes from liver hold many membrane-bound enzymes, among them those of drug oxidation.

A short description of data set [2]: in vitro. Conditions: human plasma containing 5 mM MgCl2, 37° C., LC-MS/MS; read-out: T1/2 (h) Plasma (converted). In kind it is in vitro ADME. The procedure:
To 1 mL of human plasma containing 5 mM MgCl2 was added 2 μL of a solution of 50 mM compound to be tested in DMSO, and the mixture was incubated at 37° C. 100 μL of sample was taken at different time points, into which 200 μL of methanol was added, and the mixture was centrifuged at 14000 rpm at 4° C. for 30 min. 100 μL of supernatant was taken, into which 100 μL of methanol was added, and the mixture was frozen at −20° C. for later use.
as §1

Data set [3] can be described thus: Pharmacokinetic evaluation in beagle dogs. As to conditions: for Cmax: male, dog, po, plasma, intragastric, II-1 5 mg/kg, II-6 5.13 mg/kg, I-5-B 5.27 mg/kg, read-out: Cmax(ng/ml) Prodrug prototype. In kind it is in vivo. The procedure:
Male beagle dogs (7-8 months old, weighing 7-10 kg) were randomly divided into groups (2 beagle dogs per group) and weighed. The beagle dogs were fasted for 12 h before administration. The sample to be tested at a certain concentration was ground and suspended in 0.5% sodium carboxymethylcellulose solution, and II-1 (5 mg/kg), II-6 (5.13 mg/kg) or I-5-B (5.27 mg/kg) was administered intragastrically to the beagle dogs. Before administration and 0.5 h, 1 h, 2 h, 4 h, 6 h, 8 h, 10 h and 24 h after administration, 0.5 mL of blood was collected from the cephalic vein of forelimb separately, anticoagulated with sodium heparin, centrifuged to separate out the plasma, which was stored at −80° C. for determination.
50 μL of drug-containing plasma was taken, into which 50 μL of methanol and 100 μL of internal-standard acetaminophen methanol solution were added, and the mixture was vortexed for 1 min and centrifuged at 12000 rpm for 10 min at 4° C. The supernatant was taken and placed in an internal insert tube for quantitative analysis by LC-MS/MS (the method was the same as that in Example 7).

The subject of data set [4] is hepatitis B. As to conditions: ducks; disclosed in CN103804417A; cited from earlier work.

Bounds are passed on as bounds.

Consider `C=C1[C@H](CO[P@@](=O)(N[C@@H](C)C(=O)OC)Oc2ccc(Br)cc2)[C@@H](O)C[C@@H]1n1cnc2c(=O)[nH]c(N)nc21` [II-4, 2-amino-1,9-dihydro-9-[(1S,3R,4S)-4-hydroxy-3-((S)-((S)-1-methoxycarbonylethylamino-(4-bromo-phenyl)oxy-phosphoryl)-oxymethyl)-2-methylenecyclopentyl]-6H-purin-6-one], for which the half-life at 100 µM in data set [1] is 0.06 h; in data set [2] it was 6.2 h.
As for `C=C1[C@H](CO[P@@](=O)(N[C@@H](C)C(=O)OC)Oc2ccc(Cl)cc2)[C@@H](O)C[C@@H]1n1cnc2c(=O)[nH]c(N)nc21` [II-3, 2-amino-1,9-dihydro-9-[(1S,3R,4S)-4-hydroxy-3-((S)-((S)-1-methoxycarbonylethylamino-(4-chloro-phenyl)oxy-phosphoryl)-oxymethyl)-2-methylenecyclopentyl]-6H-purin-6-one], the half-life at 100 µM in data set [1] was 0.06 h; in data set [2] it was 7.5 h.
For the molecule `C=C1[C@H](CO[P@@](=O)(N[C@@H](C)C(=O)OC(C)C)Oc2ccccc2)[C@@H](O)C[C@@H]1n1cnc2c(=O)[nH]c(N)nc21` [I-5-B, 2-amino-1,9-dihydro-9-[(1S,3R,4S)-4-hydroxy-3-((S)-((S)-1-isopropoxycarbonylethylamino-phenoxy-phosphoryl)-oxymethyl)-2-methylenecyclopentyl]-6H-purin-6-one, reference compound], the half-life at 100 µM in data set [1] was 0.4 h. Moreover, in data set [3], the “prodrug prototype present in plasma (in words)” value is given as “high concentration”, the “transformation into the active form (in words)” value is recorded as “can not be completely transformed into the active form” and the Cmax amounted to 864 ng/mL. For the same molecule, the “antiviral effect on hepatitis B in vivo (in words)” value in data set [4] is reported as “good antiviral effect”. Further, the half-life at 100 µM in data set [2] was > 24 h.
Take `C=C1[C@H](CO[P@@](=O)(N[C@@H](C)C(=O)OC)Oc2ccc(F)cc2)[C@@H](O)C[C@@H]1n1cnc2c(=O)[nH]c(N)nc21` [II-2, 2-amino-1,9-dihydro-9-[(1S,3R,4S)-4-hydroxy-3-((S)-((S)-1-methoxycarbonylethylamino-(4-fluoro-phenyl)oxy-phosphoryl)-oxymethyl)-2-methylenecyclopentyl]-6H-purin-6-one]: the figures for the half-life at 100 µM in data set [1] and in data set [2] were 0.13 h and 10.6 h, respectively.
In the case of `C=C1[C@H](CO[P@@](=O)(N[C@@H](C)C(=O)OC)Oc2ccc(C)cc2)[C@@H](O)C[C@@H]1n1cnc2c(=O)[nH]c(N)nc21` [II-6, 2-amino-1,9-dihydro-9-[(1S,3R,4S)-4-hydroxy-3-((S)-((S)-1-methoxycarbonylethylamino-(4-methyl-phenyl)oxy-phosphoryl)-oxymethyl)-2-methylenecyclopentyl]-6H-purin-6-one], the values for the half-life at 100 µM in data set [1] and in data set [2] were 0.19 h and 10.8 h, respectively. Moreover, the Cmax in data set [3] stood at 633 ng/mL.
Regarding `C=C1[C@H](CO[P@@](=O)(N[C@@H](C)C(=O)OC)Oc2ccc(OC)cc2)[C@@H](O)C[C@@H]1n1cnc2c(=O)[nH]c(N)nc21` [II-5, 2-amino-1,9-dihydro-9-[(1S,3R,4S)-4-hydroxy-3-((S)-((S)-1-methoxycarbonylethylamino-(4-methoxy-phenyl)oxy-phosphoryl)-oxymethyl)-2-methylenecyclopentyl]-6H-purin-6-one], the half-life at 100 µM in data set [1] is 0.03 h; in data set [2] it was 4.9 h.
For `C=C1[C@H](CO[P@@](=O)(N[C@@H](C)C(=O)OC)Oc2ccccc2)[C@@H](O)C[C@@H]1n1cnc2c(=O)[nH]c(N)nc21` [II-1, 2-amino-1,9-dihydro-9-[(1S,3R,4S)-4-hydroxy-3-((S)-((S)-1-methoxycarbonylethylamino-phenoxy-phosphoryl)-oxymethyl)-2-methylenecyclopentyl]-6H-purin-6-one], the half-life at 100 µM is 0.27 h in data set [1] and 15.3 h in data set [2]. In addition, in data set [3] (intragastric administration), the “plasma concentration of the prodrug prototype (in words, versus I-5-B)” value is “significantly lower than that of the I-5-B”. Moreover, the Cmax in data set [3] worked out at 331 ng/mL.

The values are drawn from patent US12590097B2 (priority 2020, dated 2026).
